The structures appear in SMILES notation.

Common to all, as to type: biochemical
For assay [1], the target named is GSK3β (Homo sapiens, UniProt P49841). As to the kind of experiment: GSK3β in vitro enzymatic assay (Kinase-Glo Max luminescence). To be noted: recombinant human GSK3, 10 μM ATP; approximate values; read-out: Potency GSK3beta. In outline: (§1)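 Recombinant human enzyme was run for 40 min at 30 °C in Tris pH 7.4 with 0.1 mg/ml GSK tide substrate, 10 uM ATP and 1% DMSO final, in duplicate. Remaining ATP was read by Kinase-Glo Max luminescence. IC50 came from a sigmoidal fit of percent activity.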
Sequence of GSK3β (P49841 whole entry): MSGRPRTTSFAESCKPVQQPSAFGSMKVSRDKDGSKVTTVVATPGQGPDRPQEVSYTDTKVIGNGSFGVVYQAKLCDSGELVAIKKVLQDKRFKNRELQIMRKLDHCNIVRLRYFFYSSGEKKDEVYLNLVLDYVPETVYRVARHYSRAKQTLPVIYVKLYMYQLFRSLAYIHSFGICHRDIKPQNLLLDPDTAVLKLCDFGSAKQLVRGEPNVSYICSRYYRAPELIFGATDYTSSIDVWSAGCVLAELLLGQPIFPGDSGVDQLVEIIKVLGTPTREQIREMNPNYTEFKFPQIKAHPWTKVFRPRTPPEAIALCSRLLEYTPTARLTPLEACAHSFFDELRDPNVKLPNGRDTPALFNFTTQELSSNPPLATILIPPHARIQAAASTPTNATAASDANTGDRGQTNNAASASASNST

The target of assay [2] is LSD-1 (Homo sapiens, UniProt O60341). As to the kind of experiment: LSD-1 A-screen (AlphaScreen) demethylase enzymatic assay. To be noted: approximate values; for IC50: read-out: Potency LSD-1 IC50; for inhibition at 50 µM: read-out: Potency LSD-1 % Inhibition at 50 μM. In outline:
(§2)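 Recombinant human demethylase was preincubated 30 min with compound, then reacted with histone H3 peptide substrate for 60 min at room temperature (1% DMSO, duplicates). Product was detected by AlphaScreen with primary antibody, acceptor and streptavidin donor beads. No-enzyme and no-compound wells set 0% and 100% activity; IC50 came from sigmoidal dose-response fits.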

Assay [3] addresses GSK3α (Homo sapiens, UniProt P49840). The assay can be described thus: GSK3α in vitro enzymatic assay (Kinase-Glo Max luminescence). The settings on record: recombinant human GSK3, 10 μM ATP; approximate values; read-out: Potency GSK3alpha. In outline:
as §1

The target in assay [4] is T1, LSD2 (Homo sapiens, UniProt Q8NB78).
T1 sequence (Q8NB78 1-822): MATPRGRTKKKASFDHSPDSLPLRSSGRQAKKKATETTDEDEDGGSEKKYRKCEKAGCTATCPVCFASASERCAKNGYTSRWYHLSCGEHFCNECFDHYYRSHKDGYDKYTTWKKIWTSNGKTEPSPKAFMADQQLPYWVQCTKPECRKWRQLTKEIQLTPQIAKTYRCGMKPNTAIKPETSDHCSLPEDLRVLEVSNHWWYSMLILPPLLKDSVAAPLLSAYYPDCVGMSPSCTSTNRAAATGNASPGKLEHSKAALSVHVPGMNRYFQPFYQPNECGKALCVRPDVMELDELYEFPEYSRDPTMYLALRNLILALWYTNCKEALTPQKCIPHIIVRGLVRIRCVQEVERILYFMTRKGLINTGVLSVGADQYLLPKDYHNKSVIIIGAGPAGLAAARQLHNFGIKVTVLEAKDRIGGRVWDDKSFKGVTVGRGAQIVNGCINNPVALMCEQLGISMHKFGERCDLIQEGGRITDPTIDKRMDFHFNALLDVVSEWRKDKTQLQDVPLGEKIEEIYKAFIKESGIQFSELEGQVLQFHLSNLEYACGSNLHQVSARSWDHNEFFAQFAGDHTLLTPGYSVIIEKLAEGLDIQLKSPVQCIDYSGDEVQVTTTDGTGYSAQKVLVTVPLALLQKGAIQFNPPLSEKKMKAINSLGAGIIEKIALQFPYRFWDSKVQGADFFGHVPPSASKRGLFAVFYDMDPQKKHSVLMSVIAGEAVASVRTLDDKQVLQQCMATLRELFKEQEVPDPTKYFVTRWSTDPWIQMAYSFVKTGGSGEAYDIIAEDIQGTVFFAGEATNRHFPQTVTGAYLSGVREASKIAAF
The assay can be described thus: LSD2 A-screen (AlphaScreen) demethylase enzymatic assay. To be noted: approximate values; for inhibition at 50 µM: 50 μM compound, read-out: Potency LSD-2 % Inhibition at 50 μM. A digest of the protocol: as §2

Sequence of GSK3α (P49840 whole entry): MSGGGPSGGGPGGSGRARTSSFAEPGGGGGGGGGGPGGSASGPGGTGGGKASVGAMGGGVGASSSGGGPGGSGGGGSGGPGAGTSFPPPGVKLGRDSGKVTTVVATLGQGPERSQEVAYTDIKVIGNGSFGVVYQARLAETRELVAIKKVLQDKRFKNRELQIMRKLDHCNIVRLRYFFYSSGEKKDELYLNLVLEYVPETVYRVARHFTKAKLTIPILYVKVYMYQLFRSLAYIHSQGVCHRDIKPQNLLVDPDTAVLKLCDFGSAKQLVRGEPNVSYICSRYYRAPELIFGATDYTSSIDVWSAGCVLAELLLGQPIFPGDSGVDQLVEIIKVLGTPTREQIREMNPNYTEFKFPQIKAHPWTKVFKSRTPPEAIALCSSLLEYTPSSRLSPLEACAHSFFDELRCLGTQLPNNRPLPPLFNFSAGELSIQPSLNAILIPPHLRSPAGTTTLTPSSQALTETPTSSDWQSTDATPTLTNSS

With `CCn1cc(C(=O)O)c(=O)c2c(N)c(F)c(N[C@@H]3C[C@H]3c3ccccc3)cc21` (single isomer, unassigned) [Compound I-20], the IC50 was found to be 0.338 µM in assay [1] and 0.102 µM in assay [3]. Moreover, the “Potency LSD-1 % Inhibition at 50 μM” value in assay [2] (50 μM compound, 50 µM) is recorded as <10% @ 50 μM. Further, in assay [4], the inhibition at 50 µM is 10%.

As to `Nc1c(F)c(NCCN[C@@H]2C[C@H]2c2ccccc2)cc2c1c(=O)c(C(=O)O)cn2C1CC1` (relative stereo) [Compound I-89], the IC50 was determined as 0.308 µM in assay [1], 7.4 µM in assay [2] and 0.393 µM in assay [3]. Further, in assay [4], the inhibition at 50 µM was 5%.

Take `CCn1cc(C(=O)O)c(=O)c2c(N)c(F)c(NC3CC(N[C@@H]4C[C@H]4c4ccccc4)C3)cc21` (relative stereo) [Compound I-70]: the IC50 in assay [1] was 0.169 µM; in assay [2] it was 1.1 µM; in assay [3] it was 0.207 µM; in assay [4] (read-out: Potency LSD-2 IC50) it was > 100 µM.

Turning to `Cn1cc(C(=O)O)c(=O)c2c(N)c(F)c(NCCN[C@@H]3C[C@H]3c3ccccc3)cc21` (relative stereo) [Compound I-86], the IC50 in assay [1] was 2.17 µM; in assay [2], 1.9 µM; in assay [3] it was 0.919 µM. In addition, the inhibition at 50 µM in assay [4] was found to be 6%.

For `CCC(CC)n1cc(C(=O)O)c(=O)c2c(C)c(F)c(NC3CCCCC3)cc21` [Compound I-3], the IC50 in assay [1] amounted to 0.366 µM; in assay [3] it was 0.25 µM. In addition, the values for the inhibition at 50 µM in assay [2] (50 μM compound) and in assay [4] were 13% and 0%, respectively.

As for `CCn1cc(C(=O)O)c(=O)c2c(N)c(F)c(N[C@@H]3CC[C@@H]3c3ccccc3)cc21` (relative stereo) [Compound I-14], the IC50 in assay [1] and in assay [3] was > 10 µM each time. Also, the inhibition at 50 µM in assay [2] (50 μM compound) is 5%; in assay [4], 3%.

Consider `CCn1cc(C(=O)O)c(=O)c2c(N)c(F)c(N[C@H]3CC[C@H](N[C@@H]4C[C@H]4c4ccccc4)CC3)cc21` (relative stereo) [Compound I-27], for which the values for the IC50 in assay [1], in assay [2] and in assay [3] were 0.075 µM, 1.6 µM and 0.047 µM, respectively. For the same compound, the inhibition at 50 µM in assay [4] was 45%.

For `CCn1cc(C(=O)O)c(=O)c2c(N)c(F)c(N3CCC(N[C@@H]4C[C@H]4c4ccccc4)CC3)cc21` (relative stereo) [Compound I-26], the figures for the IC50 in assay [1], in assay [2] and in assay [3] were > 10 µM, 1.5 µM and > 10 µM, respectively. In addition, in assay [4], the inhibition at 50 µM was 53%.
